Results as given in patent publication US9717703B2, “Emulsion and emulsion preconcentrate compositions comprising omega-3 fatty acids and uses thereof are disclosed” (GLAXOSMITHKLINE LLC, priority 2009, dated 2017).

Experiment: Clinical study Part B, two-week repeat dose plasma EPA/DHA pharmacokinetics
Details: human, in vivo
Excerpt: Part A comprised single dose administration of emulsion pre-concentrate capsules or liquid emulsion equivalent to 1.68 g LOVAZA®. Part B comprised two-week, repeat dosing of selected doses of the emulsion pre-concentrate capsules. […] Part B was a single blind, randomized, parallel group, placebo controlled study consisting of a 2-week repeat dose period with 3 dose levels of the K85EE emulsion pre-concentrate capsules, and one dose of LOVAZA®. Within each cohort, at least eight healthy subjects were randomized to an active treatment group, and at least 2 subjects were randomized to a matching placebo (1000 mg capsule containing corn oil, NF 994 mg and D-Alpha Tocopherol, USP 6 mg). Data from placebo subjects was pooled for analysis. Subjects, checked into the clinical research unit, participated in a test meal on Day -2 and had 24-hr baseline EPA/DHA profiles on Day -1 and Day 1. Subjects were released from the clinic on Day 2, and returned for daily dosing on Days 3 through 12 (with a brief outpatient visit on Day 6). Subjects checked into the clinic again on the evening of Day 12, and on Day 13 they had 24-hr EPA/DHA profiles collected. Subjects were released from the clinic on Day 14, following procedures including a test meal and triglyceride sampling. In Part B, subjects were assigned to either a) one of 3 dose levels of the K85EE emulsion pre-concentrate capsules, b) LOVAZA®, or c) to placebo to match one of the 4 active treatments. Subjects were blinded as to whether they were receiving an active treatment or the corresponding placebo. The randomization ratio for active:placebo within each cohort was 4:1. Part B treatments are summarized below: The K85EE emulsion pre-concentrate capsules and LOVAZA® were administered as capsules, once daily in the manner described for Part A, and the placebos were administered as for the corresponding active treatment. Subjects were required to fast only on PK sampling days. Plasma EPA and DHA concentrations were determined according to the above method.

In the case of omega-3-acid ethyl esters [LOVAZA], the “Free DHA AUC (0-24 h) Geometric LS Mean, Ref. (Day 1)” value is reported as 5.61 µg·h/mL, the “Free DHA AUC (0-24 h) Geometric LS Mean, Test (Day 13)” value is reported as 9.40 µg·h/mL and the “Free DHA Cmax Geometric LS Mean, Ref. (Day 1)” value is reported as 430 ng/mL. For the same substance, the “Free DHA Cmax Geometric LS Mean, Test (Day 13)” value was 790 ng/mL, the “Free EPA AUC (0-24 h) Geometric LS Mean, Ref. (Day 1)” value was 1.66 µg·h/mL and the “Free EPA AUC (0-24 h) Geometric LS Mean, Test (Day 13)” value was 3.22 µg·h/mL. The “Free EPA Cmax Geometric LS Mean, Ref. (Day 1)” value was 90 ng/mL, the “Free EPA Cmax Geometric LS Mean, Test (Day 13)” value was 200 ng/mL and the “Total DHA AUC (0-24 h) Geometric LS Mean, Ref. (Day 1)” value was 810.21 µg·h/mL. For the same substance, the “Total DHA AUC (0-24 h) Geometric LS Mean, Test (Day 13)” value was 1356.51 µg·h/mL, the “Total DHA Cmax Geometric LS Mean, Ref. (Day 1)” value was 38290 ng/mL and the “Total DHA Cmax Geometric LS Mean, Test (Day 13)” value was 65370 ng/mL. The “Total EPA AUC (0-24 h) Geometric LS Mean, Ref. (Day 1)” value was 251.67 µg·h/mL, the “Total EPA AUC (0-24 h) Geometric LS Mean, Test (Day 13)” value was 611.34 µg·h/mL and the “Total EPA Cmax Geometric LS Mean, Ref. (Day 1)” value was 12860 ng/mL. The “Total EPA Cmax Geometric LS Mean, Test (Day 13)” value was 30840 ng/mL.
